Values after ≈ are worked out from the molar mass of the structure shown.
Key:
Format in all cases: functional
Salmonella typhimurium = assay: Antimicrobial activity against Salmonella enterica subsp. enterica serovar Typhimurium assessed as increase in microbial growth inhibition
Salmonella enteritidis = assay: Antimicrobial activity against Salmonella enterica subsp. enterica serovar Enteritidis assessed as increase in microbial growth inhibition
Pseudomonas aeruginosa [1] = assay: Antibacterial activity against Pseudomonas aeruginosa KW799/61 assessed as microbial growth inhibition incubated for 20 hrs in iron depleted media by CLSI protocol based broth microdilution method
Pseudomonas aeruginosa [2] = assay: Antibacterial activity against Pseudomonas aeruginosa PAO1 assessed as microbial growth inhibition incubated for 20 hrs in iron depleted media by CLSI protocol based broth microdilution method
Pseudomonas aeruginosa [3] = assay: Antibacterial activity against Wild type Pseudomonas aeruginosa KW799 assessed as microbial growth inhibition incubated for 20 hrs in iron depleted media by CLSI protocol based broth microdilution method
Pseudomonas aeruginosa [4] = assay: Antibacterial activity against Pseudomonas aeruginosa Pa4 assessed as microbial growth inhibition incubated for 20 hrs in iron depleted media by CLSI protocol based broth microdilution method
Staphylococcus aureus [5] = assay: Antimicrobial activity against methicillin-resistant Staphylococcus aureus ATCC 33591 assessed as microbial growth inhibition
Staphylococcus aureus [6] = assay: Antimicrobial activity against vancomycin intermediate Staphylococcus aureus assessed as microbial growth inhibition
Enterococcus faecalis = assay: Antimicrobial activity against vancomycin-resistant Enterococcus faecalis ATCC 51575 assessed as microbial growth inhibition
Enterococcus faecium = assay: Antimicrobial activity against vancomycin-resistant Enterococcus faecium ATCC 51559 assessed as microbial growth inhibition
Acinetobacter baumannii = assay: Antimicrobial activity against Acinetobacter baumannii ATCC 17978 assessed as microbial growth inhibition under iron-deficient condition

## CC1(C)S[C@@H]2[C@H](NC(=O)[C@H](NC(=O)CCCc3cn(CCOCCOCCOCCNC(=O)c4cc(O)c(O)c(C(=O)N[C@H]5COC(=O)[C@@H](NC(=O)c6cc([C@@H]7O[C@H](CO)[C@@H](O)[C@H](O)[C@H]7O)cc(O)c6O)COC(=O)[C@@H](NC(=O)c6cc([C@@H]7O[C@H](CO)[C@@H](O)[C@H](O)[C@H]7O)cc(O)c6O)COC5=O)c4)nn3)c3ccccc3)C(=O)N2[C@H]1C(=O)O
Salmonella typhimurium
  MIC: 0.01 µM
Salmonella enteritidis
  MIC: 0.01 µM

## CC1(C)S[C@@H]2[C@H](NC(=O)[C@H](NC(=O)CCCc3cn(CCOCCOCCOCCNC(=O)c4cc(O)c(O)c(C(=O)N[C@H]5COC(=O)[C@@H](NC(=O)c6cccc(O)c6O)COC(=O)[C@@H](NC(=O)c6cccc(O)c6O)COC5=O)c4)nn3)c3ccccc3)C(=O)N2[C@H]1C(=O)O
Salmonella typhimurium
  MIC: 0.01 µM
Salmonella enteritidis
  MIC: 0.01 µM

## CC(=O)Oc1cccc(C(=O)NCCCC(CCCNC(=O)c2cccc(OC(C)=O)c2OC(C)=O)(CCCNC(=O)c2cccc(OC(C)=O)c2OC(C)=O)NC(=O)CCC(=O)NC(C(=O)NC2C(=O)N3C2SC(C)(C)[C@@H]3C(=O)O)c2ccccc2)c1OC(C)=O (stereo partly drawn)
Pseudomonas aeruginosa [1]
  MIC: 0.05 µM (≈ 0.0647 µg/mL)
Pseudomonas aeruginosa [2]
  MIC: 0.05 µM (≈ 0.0647 µg/mL)
Pseudomonas aeruginosa [3]
  MIC: 0.05 µM (≈ 0.0647 µg/mL)
Pseudomonas aeruginosa [4]
  MIC: 0.05 µM (≈ 0.0647 µg/mL)

## CC1=C(C(=O)O)N2C(=O)[C@@H](NC(=O)[C@H](NC(=O)CCCc3cn(CCOCCOCCOCCNC(=O)c4cc(O)c(O)c(C(=O)N[C@H]5COC(=O)[C@@H](NC(=O)c6cccc(O)c6O)COC(=O)[C@@H](NC(=O)c6cccc(O)c6O)COC5=O)c4)nn3)c3ccccc3)[C@H]2SC1
Salmonella typhimurium
  MIC: 0.01 µM
Salmonella enteritidis
  MIC: 0.01 µM

## CCCCCCCCCCN[C@@]1(C)C[C@H](O[C@H]2[C@H](Oc3c4cc5cc3Oc3ccc(cc3Cl)[C@@H](O)[C@@H](NC(=O)[C@@H](CC(C)C)NC)C(=O)N[C@@H](CC(N)=O)C(=O)N[C@H]5C(=O)N[C@H]3C(=O)N[C@H](C(=O)N[C@H](C(=O)NCCCNC(=O)[C@H](O)[C@@H](O)[C@H](O[C@H]5O[C@@H](CO)[C@@H](O)[C@@H](O)[C@@H]5O)[C@H](O)CO)c5cc(O)cc(O)c5-c5cc3ccc5O)[C@H](O)c3ccc(c(Cl)c3)O4)O[C@H](CO)[C@@H](O)[C@@H]2O)O[C@@H](C)[C@H]1O
Staphylococcus aureus [5]
  MIC: 0.2 µM (≈ 0.397 µg/mL)
Staphylococcus aureus [6]
  MIC: 0.2 µM (≈ 0.397 µg/mL)
Enterococcus faecalis
  MIC: 0.2 µM (≈ 0.397 µg/mL)
Enterococcus faecium
  MIC: 0.2 µM (≈ 0.397 µg/mL)

## N[C@@H](C(=O)N[C@@H]1C(=O)N2C(C(=O)O)=C(Cl)CS[C@H]12)c1ccccc1 [CEFACLOR ANHYDROUS]
Acinetobacter baumannii
  MIC: 64 µg/mL (≈ 174 µM)

## C[C@H]1OC(c2cccc(O)c2O)=N[C@@H]1C(=O)N[C@@H](COC(=O)c1cccc(O)c1O)C(=O)NCCCCN(O)C(=O)N[C@@H](C(=O)N[C@@H]1C(=O)N2C(C(=O)O)=C(Cl)CS[C@H]12)c1ccccc1
Acinetobacter baumannii
  MIC: 0.5 µg/mL (≈ 0.532 µM)

## C[C@@H](O)[C@H]1C(=O)N2C(C(=O)O)=C(S[C@H]3C[C@@H](C(=O)N(C)C)N(C(=O)CCCc4cn(CCOCCOCCOCCNC(=O)c5cc(O)c(O)c(C(=O)N[C@H]6COC(=O)[C@@H](NC(=O)c7cc([C@@H]8O[C@H](CO)[C@@H](O)[C@H](O)[C@H]8O)cc(O)c7O)COC(=O)[C@@H](NC(=O)c7cc([C@@H]8O[C@H](CO)[C@@H](O)[C@H](O)[C@H]8O)cc(O)c7O)COC6=O)c5)nn4)C3)[C@H](C)[C@H]12
Salmonella typhimurium
  MIC: 0.01 µM
Salmonella enteritidis
  MIC: 0.01 µM
